What all share (assay type): cell-based
In one assay the test system is Aspergillus niger. The assay can be described thus: in vitro serial dilution test for antimycotic action (microtitration technique), mold. The following applies: read-out: Minimum inhibitory concentration for Aspergillus niger. As for the experimental part:
(§1) The in vitro tests for an antimycotic action are carried out in serial dilution tests on yeasts (Candida albicans) and molds (Aspergillus niger) [Material and Methods: Microtitration technique published in Mykosen 27, 14 (1984)].

The subject of a further assay is Candida albicans. The assay can be described thus: in vitro serial dilution test for antimycotic action (microtitration technique), yeast. As to conditions: read-out: Minimum inhibitory concentration for Candida albicans. The procedure:
as §1

The test system of assay [1] is yeasts (Candida albicans) and molds (Aspergillus niger). Description: in vitro tests for an antimycotic action in serial dilution, overall result in words. The following applies: compared with reference substance niphimycin. As for the experimental part: as §1

Converted amounts (≈) assume the structure as drawn.

As for `CNC(=N)NCCCC=CCCCC(C)CC(C)C1OC(=O)C(C)C(O)C=CC(C)C(O)CC(O)C(C)C(O)CCC(C)C(O)CC2(O)OC(CC(O)CC(O)CC(O)C(C)C(O)C=CC=CC1C)CC(O)C2O` (centres unmarked) [Demalonyl compound], the values for the MIC with Aspergillus niger and with Candida albicans were 1.95 µg/mL (≈ 1.85 µM) and 3.9 µg/mL (≈ 3.69 µM), respectively. The antimycotic properties result in assay [1] was “good antimycotic properties which are superior to those of the reference substance niphimycin”.
Take `CNC(=N)NCCCC=CCCCC(C)CC(C)C1OC(=O)C(C)C(O)C=CC(C)C(O)CC(O)C(C)C(O)CCC(C)C(O)CC2(O)OC(CC(OC(=O)CC(=O)O)CC(O)CC(O)C(C)C(O)C=CC=CC1C)CC(O)C2O` (centres unmarked) [Niphimycin, reference compound]: the MIC in the assay with Aspergillus niger is 3.9 µg/mL (≈ 3.41 µM); in the assay with Candida albicans, 7.8 µg/mL (≈ 6.83 µM).

(Values after patent US4873347A, “Process for the preparation of the demalonyl compound of macrolide lactones” (Hoechst Aktiengesellschaft, priority 1986, dated 1989).)
